The record followed here is ChEMBL document CHEMBL4177611, “Discovery of aminocyclohexene analogues as selective and orally bioavailable hNav1.7 inhibitors for analgesia” (Bioorg Med Chem Lett, 2017).

In general, bioavailability refers to dose-corrected exposure relative to a reference, in per cent. A low value points to little systemic uptake. The clearance is the rate of elimination divided by the concentration. The low end stands for inefficient removal, the high end for efficient removal. As usually defined, the Cmax is the peak of the concentration-time curve. The half-life is how long it takes for the measured level to halve. As usually defined, the AUC(0-t) is the area under the concentration-time curve up to a stated or last time point. What is called IC50 is the point on the concentration scale where inhibition reaches its midpoint. A word on the fraction unbound: it is the share of the substance not bound to proteins or other matrix. A low value points to little free substance. Broadly, the thermodynamic solubility is solubility found after equilibrating the solid with the medium.

The structures appear in SMILES notation. Bounds are passed on as bounds.

Series [1] in a line: Volume of distribution at steady state in Sprague-Dawley rat at 3 mg/kg administered as single iv bolus by LC-MS/MS analysis. The class given is ADME, organism-based. The following applies: in vivo, read-out: Vdss.
Series [2] is described as follows: Oral bioavailability in Sprague-Dawley rat at 10 mg/kg administered as single dose via gavage by LC-MS/MS analysis. The series is classed as ADME, organism-based. The following applies: in vivo.
The nature of series [3]: Initial plasma concentration in Sprague-Dawley rat at 3 mg/kg administered as single iv bolus by LC-MS/MS analysis. The class given is ADME, organism-based.
The nature of series [4]: Clearance in Sprague-Dawley rat at 3 mg/kg administered as single iv bolus by LC-MS/MS analysis. The series is classed as ADME, organism-based. As to conditions: in vivo.
Series [5] can be described thus: Cmax in Sprague-Dawley rat at 10 mg/kg administered as single dose via oral gavage by LC-MS/MS analysis. The class given is ADME, organism-based. More on the design: dose 10 mg/kg, route oral. As to conditions: in vivo.
Series [6] in a line: Half life in Sprague-Dawley rat at 10 mg/kg administered as single dose via oral gavage by LC-MS/MS analysis. The series is classed as ADME, organism-based. As to conditions: in vivo.
Series [7] can be described thus: AUC (0 to last) in Sprague-Dawley rat at 10 mg/kg administered as single dose via oral gavage by LC-MS/MS analysis. The class given is ADME, organism-based. The following applies: in vivo. Details: dose 10 mg/kg, route oral, time 0 - last.
Series [8] deals with Sodium channel protein type 5 subunit alpha (Homo sapiens, UniProt Q14524). The experiment in a line: Inhibition of human Nav1.5 expressed in HEK293 cells at -120 mV holding potential incubated over 5 mins measured at 15 secs interval by Qpatch clamp assay. The class given is cell-based. (In general: Patch clamp records ionic current or voltage across a cell membrane.)
In series [9] the target is Sodium channel protein type 4 subunit alpha (Homo sapiens, UniProt P35499). The class given is ADME.
Series [10] can be described thus: Fraction unbound in human plasma at 2 uM after 4 hrs by LC-MS/MS analysis. The class given is ADME, cell-free.
Series [11] is described as follows: Plasma concentration in Sprague-Dawley rat spinal nerve ligation model at 100 mg/kg administered as single dose via oral gavage measured after 1 hr by LC-MS/MS analysis. The series is classed as ADME, organism-based.
The nature of series [12]: Plasma concentration in Sprague-Dawley rat spinal nerve ligation model at 100 mg/kg administered as single dose via oral gavage measured after 4 hrs by LC-MS/MS analysis. The class given is ADME, organism-based.
A short description of series [13]: Unbound plasma concentration in Sprague-Dawley rat spinal nerve ligation model at 30 mg/kg administered as single dose via oral gavage measured after 4 hrs by LC-MS/MS analysis. The class given is ADME, organism-based. As to conditions: in vivo.
Series [14] in a line: Unbound plasma concentration in Sprague-Dawley rat spinal nerve ligation model at 100 mg/kg administered as single dose via oral gavage measured after 4 hrs by LC-MS/MS analysis. The class given is ADME, organism-based. The following applies: in vivo.
The target in series [15] is T1, Cytochrome P450 1A2 (Homo sapiens, UniProt P05177).
T1 sequence (P05177 whole entry): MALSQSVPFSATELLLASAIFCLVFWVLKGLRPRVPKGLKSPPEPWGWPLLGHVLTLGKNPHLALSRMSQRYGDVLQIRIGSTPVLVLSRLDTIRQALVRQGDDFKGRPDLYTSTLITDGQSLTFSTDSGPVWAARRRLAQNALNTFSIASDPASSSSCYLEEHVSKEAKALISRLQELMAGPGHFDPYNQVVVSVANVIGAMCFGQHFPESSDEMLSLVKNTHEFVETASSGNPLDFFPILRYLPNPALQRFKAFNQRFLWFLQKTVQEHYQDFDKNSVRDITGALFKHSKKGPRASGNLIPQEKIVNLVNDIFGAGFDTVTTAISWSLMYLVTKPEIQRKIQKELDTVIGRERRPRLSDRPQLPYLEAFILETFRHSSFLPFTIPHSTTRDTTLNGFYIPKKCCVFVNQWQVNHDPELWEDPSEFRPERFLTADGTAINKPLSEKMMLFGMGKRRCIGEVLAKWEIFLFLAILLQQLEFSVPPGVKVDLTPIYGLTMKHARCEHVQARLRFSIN

Series [16] in a line: physchem. As to conditions: buffer, pH 7.4.

Sequence of Sodium channel protein type 5 subunit alpha (Q14524 whole entry): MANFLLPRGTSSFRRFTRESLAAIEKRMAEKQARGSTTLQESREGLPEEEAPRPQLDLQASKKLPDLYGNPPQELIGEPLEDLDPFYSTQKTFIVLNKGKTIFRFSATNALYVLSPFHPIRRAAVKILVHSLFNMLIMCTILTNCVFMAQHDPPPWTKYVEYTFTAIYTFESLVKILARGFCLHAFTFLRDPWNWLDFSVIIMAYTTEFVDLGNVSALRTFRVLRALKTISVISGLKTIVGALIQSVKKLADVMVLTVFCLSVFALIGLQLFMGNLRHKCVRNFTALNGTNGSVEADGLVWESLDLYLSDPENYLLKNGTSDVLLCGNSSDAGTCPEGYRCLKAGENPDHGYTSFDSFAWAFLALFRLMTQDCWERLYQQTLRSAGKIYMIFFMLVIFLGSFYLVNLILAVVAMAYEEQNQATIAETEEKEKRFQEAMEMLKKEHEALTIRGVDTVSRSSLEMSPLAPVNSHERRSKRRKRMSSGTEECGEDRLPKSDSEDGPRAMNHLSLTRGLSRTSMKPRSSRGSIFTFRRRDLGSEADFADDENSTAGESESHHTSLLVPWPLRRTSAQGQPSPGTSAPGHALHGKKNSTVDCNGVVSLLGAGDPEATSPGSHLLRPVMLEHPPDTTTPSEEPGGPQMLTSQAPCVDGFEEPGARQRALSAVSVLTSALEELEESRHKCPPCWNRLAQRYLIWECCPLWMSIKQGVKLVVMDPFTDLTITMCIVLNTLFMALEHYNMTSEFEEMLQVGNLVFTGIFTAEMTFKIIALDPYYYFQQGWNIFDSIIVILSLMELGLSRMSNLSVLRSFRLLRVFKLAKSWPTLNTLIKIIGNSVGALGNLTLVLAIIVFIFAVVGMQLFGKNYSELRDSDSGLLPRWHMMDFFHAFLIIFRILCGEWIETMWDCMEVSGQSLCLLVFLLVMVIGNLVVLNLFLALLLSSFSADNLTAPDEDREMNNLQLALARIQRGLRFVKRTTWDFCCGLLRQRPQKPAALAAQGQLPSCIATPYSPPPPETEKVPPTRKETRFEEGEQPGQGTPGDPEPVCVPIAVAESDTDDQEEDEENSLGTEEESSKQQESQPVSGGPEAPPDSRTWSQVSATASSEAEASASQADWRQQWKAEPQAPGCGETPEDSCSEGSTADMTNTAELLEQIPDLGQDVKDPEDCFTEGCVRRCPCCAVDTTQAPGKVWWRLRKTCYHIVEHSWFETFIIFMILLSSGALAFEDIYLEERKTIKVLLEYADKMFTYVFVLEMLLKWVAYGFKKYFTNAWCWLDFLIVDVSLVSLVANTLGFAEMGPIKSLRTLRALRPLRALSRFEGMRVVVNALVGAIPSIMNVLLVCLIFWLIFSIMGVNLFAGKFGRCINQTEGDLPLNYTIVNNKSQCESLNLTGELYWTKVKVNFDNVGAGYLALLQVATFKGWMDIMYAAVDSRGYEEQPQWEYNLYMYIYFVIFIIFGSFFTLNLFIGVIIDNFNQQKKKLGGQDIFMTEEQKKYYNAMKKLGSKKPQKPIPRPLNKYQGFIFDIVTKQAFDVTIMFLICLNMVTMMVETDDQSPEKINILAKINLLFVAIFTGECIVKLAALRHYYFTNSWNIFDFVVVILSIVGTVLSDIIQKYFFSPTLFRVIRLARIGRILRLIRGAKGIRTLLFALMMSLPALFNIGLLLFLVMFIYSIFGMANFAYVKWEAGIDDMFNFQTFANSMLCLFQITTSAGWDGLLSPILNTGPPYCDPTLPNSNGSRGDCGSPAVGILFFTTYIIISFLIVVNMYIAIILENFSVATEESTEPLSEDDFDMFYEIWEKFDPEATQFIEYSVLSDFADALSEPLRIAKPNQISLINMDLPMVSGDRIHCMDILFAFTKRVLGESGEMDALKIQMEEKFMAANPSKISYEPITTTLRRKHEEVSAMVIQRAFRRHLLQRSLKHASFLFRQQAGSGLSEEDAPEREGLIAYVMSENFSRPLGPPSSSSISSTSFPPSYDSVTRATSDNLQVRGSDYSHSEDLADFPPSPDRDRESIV
Sequence of Sodium channel protein type 4 subunit alpha (P35499 whole entry): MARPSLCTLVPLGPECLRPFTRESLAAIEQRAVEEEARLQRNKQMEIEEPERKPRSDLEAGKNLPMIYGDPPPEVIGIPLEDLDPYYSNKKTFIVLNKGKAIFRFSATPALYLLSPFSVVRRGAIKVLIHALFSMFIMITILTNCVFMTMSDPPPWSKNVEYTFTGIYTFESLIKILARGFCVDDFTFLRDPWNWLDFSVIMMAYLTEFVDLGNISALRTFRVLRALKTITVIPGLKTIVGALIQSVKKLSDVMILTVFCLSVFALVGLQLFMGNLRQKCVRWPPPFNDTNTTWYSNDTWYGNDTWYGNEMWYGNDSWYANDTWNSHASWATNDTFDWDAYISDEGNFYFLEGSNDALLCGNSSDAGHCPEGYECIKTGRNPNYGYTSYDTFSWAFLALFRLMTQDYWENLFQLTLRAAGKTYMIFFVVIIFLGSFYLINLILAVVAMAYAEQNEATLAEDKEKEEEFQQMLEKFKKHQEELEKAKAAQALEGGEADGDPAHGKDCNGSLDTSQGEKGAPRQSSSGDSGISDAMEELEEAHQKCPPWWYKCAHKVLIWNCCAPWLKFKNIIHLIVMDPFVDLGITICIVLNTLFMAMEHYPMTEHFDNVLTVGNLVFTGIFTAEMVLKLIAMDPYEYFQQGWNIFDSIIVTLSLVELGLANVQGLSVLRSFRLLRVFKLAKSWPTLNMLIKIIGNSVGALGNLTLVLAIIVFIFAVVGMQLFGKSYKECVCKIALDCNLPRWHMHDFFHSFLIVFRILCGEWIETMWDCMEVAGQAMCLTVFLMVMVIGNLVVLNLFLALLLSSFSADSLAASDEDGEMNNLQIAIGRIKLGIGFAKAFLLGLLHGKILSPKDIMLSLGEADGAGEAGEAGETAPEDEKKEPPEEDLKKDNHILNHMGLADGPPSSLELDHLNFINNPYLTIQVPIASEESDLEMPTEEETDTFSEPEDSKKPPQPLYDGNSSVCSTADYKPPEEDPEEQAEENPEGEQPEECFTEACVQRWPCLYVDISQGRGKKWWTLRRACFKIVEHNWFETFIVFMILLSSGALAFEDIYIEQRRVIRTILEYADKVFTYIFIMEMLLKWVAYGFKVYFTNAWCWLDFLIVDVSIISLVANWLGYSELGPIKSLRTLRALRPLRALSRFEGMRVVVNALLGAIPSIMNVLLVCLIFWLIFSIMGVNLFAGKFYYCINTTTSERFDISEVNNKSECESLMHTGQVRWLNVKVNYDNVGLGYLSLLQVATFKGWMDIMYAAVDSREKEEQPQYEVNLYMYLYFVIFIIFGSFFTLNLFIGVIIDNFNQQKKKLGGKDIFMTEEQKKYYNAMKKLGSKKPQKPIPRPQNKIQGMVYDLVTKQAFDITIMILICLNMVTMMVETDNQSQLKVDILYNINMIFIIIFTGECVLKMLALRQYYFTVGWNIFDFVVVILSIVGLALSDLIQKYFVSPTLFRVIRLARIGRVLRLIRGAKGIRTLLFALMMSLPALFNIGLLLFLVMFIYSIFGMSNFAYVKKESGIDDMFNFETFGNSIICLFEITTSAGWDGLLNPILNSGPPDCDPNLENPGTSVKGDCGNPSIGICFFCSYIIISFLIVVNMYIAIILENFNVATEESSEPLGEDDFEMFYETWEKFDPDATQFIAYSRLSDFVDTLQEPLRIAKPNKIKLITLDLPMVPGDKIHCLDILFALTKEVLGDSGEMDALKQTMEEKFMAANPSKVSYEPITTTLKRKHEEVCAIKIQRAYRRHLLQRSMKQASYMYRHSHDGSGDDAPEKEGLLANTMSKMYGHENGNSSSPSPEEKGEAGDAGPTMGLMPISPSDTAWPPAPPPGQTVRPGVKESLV

Take `CCN[C@@H]1CCC=C(c2ccc(F)cc2)[C@H]1COc1cc(F)c(S(=O)(=O)Nc2cscn2)cc1Cl.Cl`: the Vd in [1] turned out to be 4.63 L/kg. In series [2], this compound showed a bioavailability of 37%. Moreover, the C0 in series [3] was found to be 1910 nM. In series [4], this compound returned a clearance of 37 mL/min/kg. In addition, the Cmax in series [5] was 620 nM. The compound further showed a half-life in series [6] of 2.56 h. The same compound yielded an AUC(0-t) in series [7] of 3.04 µM·h. Moreover, the IC50 in series [8] is greater than 10 µM; in series [9] it was 25.2 µM; in series [15] it was greater than 50 µM. The same compound returned a fraction unbound at 4 h, 2 µM in series [10] of 0.015. In series [11], this compound gave a concentration at 1 h of 8480 nM. In series [12], this compound returned a concentration at 4 h of 4640 nM. The results for the “Cp(f)” value in series [13] and in series [14] were 54 nM and 163 nM, respectively. The compound further had a thermodynamic solubility in [16] of 26.5 µM.
